Article PMC7279038, “Antioxidant and Neuroprotective Effects Induced by Cannabidiol and Cannabigerol in Rat CTX-TNA2 Astrocytes and Isolated Cortexes” (International Journal of Molecular Sciences, 2020)

Tests used:
[1] = test system: CTX-TNA2 rat astrocyte cell line; test: MTT assay; type: cell-based; details: for cell proliferation (MTT): basal conditions, 48 h, cannabidiol 1000 nM, cannabigerol 100 and 1000 nM; for protection from H2O2 cytotoxicity (MTT): cells challenged with 300 µM H2O2, CBD 1000 nM, CBG 1 nM
Protocol: The CTX-TNA2 rat astrocytes were purchased from the European Collection of Cell Cultures (ECACC), Sigma-Aldrich, Milan, Italy, and cultured as already indicated. Cells were grown in Dulbecco’s Modified Eagle Medium supplemented with 10% of FBS and penicillin–streptomycin (100 µgmL^−1) (all from EuroClone SpA Life-Sciences-Division, Milan, Italy) and maintained in a humified atmosphere of 5% CO2 at 37 °C. Cells were subcultivated at a ratio of 1.2 to 1.8 and the medium was changed every 3 days. CTX-TNA2 astrocytes were plated in 25 or 75 cm^2 flasks, according to experimental needing and cells between the eight and the 15 passage were used.
When indicated, the cells were treated with H2O2 300 µM for three hours and different concentrations of CBD (1–1000 nM) and CBG (1–1000 nM). The stock solutions were diluted in cell medium to the point that the concentration of DMSO in the samples was less than 0.0003%. Therefore, the addition of DMSO to the control samples was not necessary.
The 3 [4–dimethylthiazol-2yl]-2,5-diphenyl tetrazolium bromide (MTT) growth assay (Sigma-Aldrich S.r.l.) was used to assess cell proliferation as previously described. Briefly, The CTX-TNA2 cells were seeded into 96-well plate at 8 × 10^3 cells/well and treated as described above. After 24 and 48 h, a medium containing 0.5 mg/mL MTT was added to the cells, and the cells were incubated at 37 °C for 3 h. Following a further incubation of 30 min in DMSO, the absorbance at 570 nm was measured using a Multiscan GO microplate spectrophotometer (Thermo Fisher Scientific, Waltham, MA, USA).

[2] = test system: isolated rat cortexes, kynurenic acid (KA); test: K+ 60 mM neurotoxicity paradigm, kynurenic acid level; details: for effect on K+ 60 mM-induced reduction in kynurenic acid (KA) level: CBD 1000 nM, CBG 1 nM
Protocol: (§1) Sprague–Dawley rats (200–250 g) were sacrificed by CO2 inhalation (Italian Health Ministry authorization N. F4738.N.XTQ, delivered on 11th November 2018) and isolated prefrontal cortex specimens were immediately explanted and incubated in thermostatic shaking bath at 37 °C for 1 h (incubation period), in Krebs–Ringer buffer at the following K^+ concentrations:
(§2) Cortexes were stimulated with CBD (1000 nM) and […]. Afterwards, specimens were homogenized in perchloric acid solution (0.05 M) for the extraction and quantification of nitrites, via the aforementioned colorimetric Griess assay, and serotonin (5-HT), 5-hydroxyindoleacetic (5HIIA),3-hydroxykinurenine (3-HK) and kinurenic acid (KA) (ng/mg wet tissue) via high performance liquid chromatography analysis. Additionally, an untargeted proteomic analysis was carried out on the cortex homogenate. The analytical protocols for 5-HT, 5HIIA, 3-HK, KA and protein level determinations are described below. The analyses were conducted in triplicate and in independent facilities with blind modality.
The KA quantitative determination was performed by using a liquid chromatograph (MOD. 1525, Waters Corporation, Milford MA, USA) equipped with a fluorimetric detector (MOD. 2475, Waters Corporation), a C18 reversed-phase column (AcclaimTM 120, 3 µm, 2.1 × 100 mm, Dionex Corporation, Sunnyvale, CA, USA), and an online degasser (Biotech 4-CH degasi compact, LabService, Anzola Emilia, Italy). The separation was conducted in isocratic conditions and the mobile phase consisted of 250 mM zinc acetate, 50 mM sodium acetate, and 3% acetonitrile (pH adjusted to 6.2 with glacial acetic acid), using a flow rate of 1.0 mL/min. In the eluate, the KA was identified and measured fluorimetrically (excitation: 344 nm; emission: 398 nm).

[3] = target: T1, BChE (butyrylcholinesterase) (Equus caballus, UniProt P81908); test: BChE inhibition, colorimetric cholinesterase assay; type: biochemical, horse; details: mean ± S.D., n = 3
T1 construct: horse serum butyrylcholinesterase, EC 3.1.1.8, Sigma Aldrich S.r.L; purchased Sigma Aldrich S.r.L; host or cells: horse serum

[4] = test system: isolated rat cortexes, 3-HK; test: K+ 60 mM neurotoxicity paradigm, 3-HK level; details: for effect on K+ 60 mM-induced increase in 3-HK level: CBD 1000 nM, CBG 1 nM
Protocol: as §1, §2
Tissue 3-HK, 5-HT and 5HIIA levels were analyzed through an HPLC apparatus consisting of a Jasco (Tokyo, Japan) PU-2080 chromatographic pump and an ESA (Chelmsford, MA, USA) Coulochem III coulometric detector, equipped with a microdialysis cell (ESA-5014b), a porous graphite working electrode and a solid state palladium reference electrode. The analytical conditions for identification and quantification were selected according to previous studies. Specifically, the analytical cell was set at −0.150 V for detector 1 and at +0.300 V for detector 2, with a range of 100 nA. The chromatograms were monitored at the analytical detector 2. […] Sample concentrations were calculated by linear regression curve (y = bx + m) obtained with standard. Neither internal nor external standards were necessary for analyte quantification in the cortex homogenate, and all tests performed for method validation and yielded results in accordance with limits indicated in official guidelines for applicability in laboratory trials. […]

[5] = Ferric reducing antioxidant power (FRAP); details: mean ± S.D., n = 3
Protocol: For the ferric reducing antioxidant power (FRAP) activity assay, sample solution was added to premixed FRAP reagent (2 mL) containing acetate buffer (0.3 M, pH 3.6), 2,4,6-tris(2-pyridyl)-S-triazine (TPTZ) (10 mM) in 40 mM HCl and ferric chloride (20 mM) in a ratio of 10:1:1 (v/v/v). Then, the sample absorbance was read at 593 nm after a 30 min incubation at room temperature. FRAP activity was expressed as IC50 values.

[6] = test system: 5-HT receptor (5-HT1A); details: cited from earlier work

T1 sequence (P81908 whole entry): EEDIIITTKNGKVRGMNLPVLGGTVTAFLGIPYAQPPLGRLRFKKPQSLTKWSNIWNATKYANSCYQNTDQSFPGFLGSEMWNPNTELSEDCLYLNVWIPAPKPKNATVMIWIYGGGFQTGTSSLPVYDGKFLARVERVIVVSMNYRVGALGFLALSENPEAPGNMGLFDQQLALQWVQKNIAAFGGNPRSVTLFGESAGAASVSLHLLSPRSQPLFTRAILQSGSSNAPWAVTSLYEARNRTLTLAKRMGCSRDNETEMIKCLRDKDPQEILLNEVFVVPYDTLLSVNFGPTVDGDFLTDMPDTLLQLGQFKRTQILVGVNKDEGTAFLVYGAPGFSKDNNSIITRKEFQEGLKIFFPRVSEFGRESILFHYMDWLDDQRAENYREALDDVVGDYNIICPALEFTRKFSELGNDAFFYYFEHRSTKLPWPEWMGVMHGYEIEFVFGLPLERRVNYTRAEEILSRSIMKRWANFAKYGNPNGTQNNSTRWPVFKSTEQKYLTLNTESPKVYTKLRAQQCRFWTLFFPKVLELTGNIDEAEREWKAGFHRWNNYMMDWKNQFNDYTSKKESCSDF

Compound	cell proliferation (MTT) [1]	protection from H2O2 cytotoxicity (MTT) [1]	effect on K+ 60 mM-induced reduction in kynurenic acid (KA) level [2]	IC50 [3] [mM]	effect on K+ 60 mM-induced increase in 3-HK level [4]	IC50 [5] [mM]	effect on 5-HT1A activity [6]	KA level ([2]; basal conditions only)	3-HK level ([4]; basal conditions only)
C=C(C)[C@@H]1CCC(C)=C[C@H]1c1c(O)cc(CCCCC)cc1O [CBD, Cannabidiol]	increase in cell proliferation	effective in protecting the cells from oxidative damage	successful in blunting	1.88 ± 0.11	successful in blunting	> 2	activated	–	–
CCCCCc1cc(O)c(C/C=C(\C)CCC=C(C)C)c(O)c1 [CBG, cannabigerol]	increase in cell proliferation	effective at the lowest concentration (1 nM)	completely ineffective	1.48 ± 0.11	completely ineffective	> 2	moderately antagonized	increase KA levels	reduce 3-HK
